Columns and labels:
Escherichia coli = test: Curative dose (CD50) in infected mice, Escherichia coli; assay type: in vivo; conditions: Maus, dose at which 50% of mice survive
Serratia marcescens = test: Curative dose (CD50) in infected mice, Serratia marcescens; assay type: in vivo; conditions: Maus, dose at which 50% of mice survive
Source text: (§1) Die orale antimikrobielle Wirksamkeit der erfindungsgemässen Produkte kann anhand von in vivo-Versuchen an der Maus nachgewiesen werden.

Neisseria meningitidis = test: Curative dose (CD50) in infected mice, Neisseria meningitidis; assay type: in vivo; conditions: po, Maus, dose at which 50% of mice survive
Source text: as §1

Streptococcus pyogenes = test: Curative dose (CD50) in infected mice, Streptococcus pyogenes; assay type: in vivo; conditions: Maus, dose at which 50% of mice survive
[1] = Blood levels after oral administration in the rat; assay type: in vivo; conditions: Ratte, orale Dosis 20 mg/kg, read-out: Antibiotikumkonzentration im Blut
Source text: ..Die nach oraler Gabe erzielten Blutspiegelwerte ergeben sich gemäss folgendem Vergleich an der Ratte.

in vivo = conditions: mouse, po

Structure (SMILES)	ED50 (Escherichia coli; po) [mg/kg]	ED50 (Escherichia coli; sc) [mg/kg]	ED50 (Serratia marcescens; po) [mg/kg]	ED50 (Serratia marcescens; sc) [mg/kg]	ED50 (Neisseria meningitidis) [mg/kg]	ED50 (Streptococcus pyogenes; po) [mg/kg]	ED50 (Streptococcus pyogenes; sc) [mg/kg]	concentration at 0.25 h ([1]; after 15 min) [ng/mL]	concentration at 0.5 h ([1]; after 30 min) [ng/mL]	concentration at 0.75 h ([1]; after 45 min) [ng/mL]	concentration at 1 h ([1]; after 60 min) [ng/mL]	concentration at 1.5 h ([1]; after 90 min) [ng/mL]	concentration at 2.5 h ([1]; after 150 min) [ng/mL]	LD50 at 24 h (in vivo) [mg/kg]
CC1=C(C(=O)O)N2C(=O)[C@@H](NC(=O)[C@H](N)c3ccccc3)[C@H]2SC1 [Cephalexin]	3.2	2.1	> 50	> 50	1.2	1.8	1.2							
CO/N=C(\C(=O)N[C@@H]1C(=O)N2C(C(=O)OCOC(=O)C(C)(C)C)=C(CSc3nc(C(=O)OCOC(=O)C(C)(C)C)nn3C)CS[C@H]12)c1csc(N)n1 [Produkt A, Methylen (6R,7R)-7-[2-(2-Amino-4-thiazolyl)-2-[ (Z)-methoxyimino]-acetamido]-3-[[[2-methyl-5-[[(pivaloyloxy)methoxy]carbonyl]-2H-1,2,4-triazol-3-yl]thio]methyl]-8-oxo-5-thia-1-azabicyclo[4.2.0]oct-2-en-2-carboxylat-pivalat]			0.68	0.05	0.14	0.95		6000	12000	12000	10000	8000	5000	> 4000
